Measurements from EP0874630B1, “TOP[…] POISON AND BIS-DIOXY[…] COMBINATION THERAPY” (priority 1996, dated 1997).
“And” between values parts separate entries of the source, which are not always exact repeats. Equal entries are not always repeated. Where two headings read alike, the source gives them in different places.

Columns and labels:
mice [1] = conditions: mouse
Experimental: First generation hybrids of female random bred Swiss mice and male inbred DBA (NDF1-hybrid) mice were used as previously described (5). The mice weighed between 19 and 21 g at the start of the experiments. […] Lethality was recorded and surviving mice were sacrificed after 60 days. Toxicity was evaluated by weight and leucocyte counts. For weight evaluations mice were treated with drugs, marked and weighed for eleven consecutive days. Blood for leucocyte counts was obtained from a tail vein and counted in a hemocytometer on days 3, 5 and 7 after treatment.

mice [2] = conditions: for increase in LD10 enabled by ICRF-187: LD10 of the topoisomerase II poison with ICRF-187 versus alone, mice
Description: Calculation of LD10 and LD50 using the maximum likelihood estimation. The 6 experiments in Table 2 are included in the computations.

[3] = tested on: Ehrlich's ascites tumour cells; assay: Therapy study, mice inoculated i.p. with Ehrlich's ascites tumour cells (increase in life span); type: in vivo
Experimental: (§1) In therapy studies, mice were inoculated i.p. with either 10^5 L1210 leukemia cells or 15x10^6 Ehrlich's ascites tumour cells on day 0 and treated with drugs i.p. on day 4 after inoculation. The brain tumour model consisted of 10^4 L1210 cells or 15x10^4 Ehrlich's ascites tumour cells in a volume of 30 µl of isotonic sodium chloride inoculated on day 0 into the temporal region followed by treatment i.p. on day 2, 3 or 4 after inoculation.
(§2) 1×10^5 L1210 tumour cells or 15×10^6 Ehrlich's ascites tumour cells were inoculated i.p. on day 0 and mice were treated i.p. on day 4. The Mann Whitney test was used for statistical evaluation.

L1210 leukemia cells = assay: Therapy study, mice inoculated i.p. with L1210 leukemia cells (increase in life span); type: in vivo
Experimental: as §1, §2

mice [4] = assay: Lethality in healthy mice after drugs given once i.p., with or without ICRF-187 pretreatment (survivors/treated); type: in vivo; conditions: for survivors/treated: compiled data from two experiments
Experimental: Toxicity was evaluated by weight and leucocyte counts.
The compiled data from two experiments showing that paclitaxel induced lethality cannot be protected by pretreamtment with ICRF-187. Groups of 11 mice were treated once i.p. with or without pretreatment with ICRF-187.

[5] = NDF1 hybrid (female Swiss x male DBA), mouse, in vivo, ip, 60 days

## C[C@@H](CN1CC(=O)NC(=O)C1)N1CC(=O)NC(=O)C1 [ICRF-187, (+)-1,2-bis(3,5-dioxopiperazinyl-1-yl)propane]
Mice [1]; NDF1 hybrid (female Swiss x male DBA), in vivo, 100 mg/kg, 60 days
  survivors/treated: 11/11
Mice [1]
  ICRF-187 mediated protection in vivo: not obtained
Mice [2]; [5]
  LD10: 500 mg/kg
  LD90: 1500 mg/kg
[3]; ICRF-187 alone, mice inoculated i.p. with Ehrlich's ascites tumour
  antitumour effect: no antitumour effect
L1210 leukemia cells; ICRF-187 alone, mice inoculated i.p. with L1210 tumour cells
  antitumour effect: no antitumour effect

## CC(=O)O[C@H]1C(=O)[C@@]2(C)[C@H]([C@H](OC(=O)c3ccccc3)[C@]3(O)C[C@H](OC(=O)[C@H](O)[C@@H](NC(=O)c4ccccc4)c4ccccc4)C(C)=C1C3(C)C)[C@]1(OC(C)=O)CO[C@@H]1C[C@@H]2O [Paclitaxel, paclitaxel]
Mice [4]; Paclitaxel 30 mg/kg alone
  Survivors/ treated, %: 100%
  survivors/treated: 22/22
Mice [4]; Paclitaxel 40 mg/kg alone
  Survivors/ treated, %: 55%
  survivors/treated: 12/22
Mice [4]; Paclitaxel 50 mg/kg alone
  Survivors/ treated, %: 0%
  survivors/treated: 0/22

## COc1cc([C@@H]2c3cc4c(cc3[C@@H](O[C@@H]3O[C@@H]5CO[C@@H](C)O[C@H]5[C@H](O)[C@H]3O)[C@H]3COC(=O)[C@H]23)OCO4)cc(OC)c1O [etoposide]
Mice [2]
  increase in LD10 enabled by ICRF-187: 3.6 fold
Mice [2]; dose of etoposide killing 10% of the mice, maximum likelihood estimation, 6 experiments of Table 2, combination with 125 mg/kg ICRF-187, 125 mg/kg
  LD10: 34 mg/kg and 33 mg/kg
Mice [2]; dose of etoposide killing 10% of the mice, maximum likelihood estimation, 6 experiments of Table 2, combination with 125 mg/kg ICRF-187, listed as VP-16, 125 mg/kg
  LD10: 34.0 mg/kg
Mice [2]; maximum likelihood estimation on the 6 experiments of Table 2, combination with 125 mg/kg ICRF-187
  log LD10: 1.531
[3]; Etoposide 33 mg/kg i.p. on day 4, 15×10^6 Ehrlich's ascites tumour cells i.p. on day 0
  ILS(%): 53% and 40% and 35%
[3]; Table 5A, Etoposide 33 mg/kg, Ehrlich's tumour cells i.p.
  increased life span, ILS(%) (etoposide alone set to 100): 100%
L1210 leukemia cells; Etoposide 33 mg/kg i.p. on day 4, 1×10^5 L1210 tumour cells i.p. on day 0
  ILS(%): 113% and 100% and 88%
L1210 leukemia cells; Table 5B, Etoposide 33 mg/kg, L 1210 tumour cells i.p.
  increased life span, ILS(%) (etoposide alone set to 100): 100%

## COc1cc([C@@H]2c3cc4c(cc3[C@@H](O[C@@H]3O[C@@H]5CO[C@@H](c6cccs6)O[C@H]5[C@H](O)[C@H]3O)[C@H]3COC(=O)[C@H]23)OCO4)cc(OC)c1O [teniposide]
Mice [2]
  increase in LD10 enabled by ICRF-187: 3.4 fold
